Measurements from PubChem BioAssay (NCI).
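Exposure lasted 48 hours, with cells grown in 96-well plates and compounds tested at five concentrations. TGI: total growth inhibition.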

Legend:
Test in all cases: NCI-60 cell line screen, 48 h
OVCAR-4 ovarian = system: OVCAR-4 ovarian
DMS 114 small cell lung = system: DMS 114 small cell lung
NCI-H522 lung = system: NCI-H522 lung
MALME-3M melanoma = system: MALME-3M melanoma
HT29 colon = system: HT29 colon
U251 CNS = system: U251 CNS
A549 NSCLC = system: A549 NSCLC
SNB-75 CNS = system: SNB-75 CNS
DMS 273 small cell lung = system: DMS 273 small cell lung
OVCAR-8 ovarian = system: OVCAR-8 ovarian
NCI-H460 lung = system: NCI-H460 lung
OVCAR-3 ovarian = system: OVCAR-3 ovarian
A498 renal = system: A498 renal
HCT-15 colon = system: HCT-15 colon
SN12C renal = system: SN12C renal
RXF 393 renal = system: RXF 393 renal
HCC-2998 colon = system: HCC-2998 colon
K-562 leukemia = system: K-562 leukemia
NCI-H226 lung = system: NCI-H226 lung
HL-60(TB) leukemia = system: HL-60(TB) leukemia
UACC-257 melanoma = system: UACC-257 melanoma
M19-MEL melanoma = system: M19-MEL melanoma
MOLT-4 leukemia = system: MOLT-4 leukemia
786-0 renal = system: 786-0 renal
TK-10 renal = system: TK-10 renal
EKVX NSCLC = system: EKVX NSCLC
CCRF-CEM leukemia = system: CCRF-CEM leukemia
ACHN renal = system: ACHN renal
SK-MEL-5 melanoma = system: SK-MEL-5 melanoma
COLO 205 colon = system: COLO 205 colon
UACC-62 melanoma = system: UACC-62 melanoma
SF-539 CNS = system: SF-539 CNS
HOP-18 NSCLC = system: HOP-18 NSCLC
RXF-631 renal = system: RXF-631 renal
SK-MEL-2 melanoma = system: SK-MEL-2 melanoma
NCI-H23 lung = system: NCI-H23 lung
XF 498 CNS = system: XF 498 CNS
HOP-62 NSCLC = system: HOP-62 NSCLC
SF-295 CNS = system: SF-295 CNS
HCT-116 colon = system: HCT-116 colon
SF-268 CNS = system: SF-268 CNS
M14 melanoma = system: M14 melanoma
RPMI-8226 leukemia = system: RPMI-8226 leukemia
SK-MEL-28 melanoma = system: SK-MEL-28 melanoma
KM20L2 colon = system: KM20L2 colon
LOX IMVI melanoma = system: LOX IMVI melanoma
SW-620 colon = system: SW-620 colon
KM12 colon = system: KM12 colon
UO-31 renal = system: UO-31 renal
SK-OV-3 ovarian = system: SK-OV-3 ovarian
HOP-92 NSCLC = system: HOP-92 NSCLC
SNB-19 CNS = system: SNB-19 CNS
IGROV1 ovarian = system: IGROV1 ovarian
DLD-1 colon = system: DLD-1 colon
SR leukemia = system: SR leukemia
CAKI-1 renal = system: CAKI-1 renal
LXFL 529 NSCLC = system: LXFL 529 NSCLC
OVCAR-5 ovarian = system: OVCAR-5 ovarian
SNB-78 CNS = system: SNB-78 CNS

Measured: TGI

COc1ccc(OC)c(NCC#N)c1
> 100 µM: OVCAR-4 ovarian | DMS 114 small cell lung | NCI-H522 lung | MALME-3M melanoma | HT29 colon | U251 CNS | A549 NSCLC | SNB-75 CNS | DMS 273 small cell lung | OVCAR-8 ovarian | NCI-H460 lung | OVCAR-3 ovarian | A498 renal | HCT-15 colon | SN12C renal | RXF 393 renal | HCC-2998 colon | K-562 leukemia | NCI-H226 lung | HL-60(TB) leukemia | UACC-257 melanoma | M19-MEL melanoma | MOLT-4 leukemia | 786-0 renal | TK-10 renal | EKVX NSCLC | CCRF-CEM leukemia | ACHN renal | SK-MEL-5 melanoma | COLO 205 colon | UACC-62 melanoma | SF-539 CNS | HOP-18 NSCLC | RXF-631 renal | SK-MEL-2 melanoma | NCI-H23 lung | XF 498 CNS | HOP-62 NSCLC | SF-295 CNS | HCT-116 colon | SF-268 CNS | M14 melanoma | RPMI-8226 leukemia | SK-MEL-28 melanoma | KM20L2 colon | LOX IMVI melanoma | SW-620 colon | KM12 colon | UO-31 renal | SK-OV-3 ovarian | HOP-92 NSCLC | SNB-19 CNS | IGROV1 ovarian

COc1ccc(/C(Cl)=C(\C=O)c2ccccc2)cc1OC
55.1 µM: SF-295 CNS | LXFL 529 NSCLC
82.2 µM: NCI-H226 lung
52.2 µM: SNB-75 CNS
22.4 µM: COLO 205 colon
81.8 µM: HOP-62 NSCLC
30.8 µM: NCI-H522 lung
69 µM: RXF 393 renal
> 100 µM: OVCAR-4 ovarian | DMS 114 small cell lung | MALME-3M melanoma | HT29 colon | U251 CNS | A549 NSCLC | DMS 273 small cell lung | OVCAR-8 ovarian | NCI-H460 lung | OVCAR-3 ovarian | HCT-15 colon | SN12C renal | HCC-2998 colon | K-562 leukemia | UACC-257 melanoma | M19-MEL melanoma | MOLT-4 leukemia | TK-10 renal | EKVX NSCLC | CCRF-CEM leukemia | DLD-1 colon | ACHN renal | SK-MEL-5 melanoma | SR leukemia | CAKI-1 renal | UACC-62 melanoma | SF-539 CNS | HOP-18 NSCLC | SK-MEL-2 melanoma | NCI-H23 lung | HCT-116 colon | SF-268 CNS | M14 melanoma | KM20L2 colon | LOX IMVI melanoma | SW-620 colon | UO-31 renal | OVCAR-5 ovarian | SK-OV-3 ovarian | SNB-78 CNS | SNB-19 CNS | IGROV1 ovarian
76.9 µM: HL-60(TB) leukemia
